Columns and labels:
[1] = Steady-state haematopoiesis analyses in C57B16 mice; format: in vivo, mouse; conditions: 30 mg/kg i.p. twice daily for 14 days
Experimental: For steady-state analyses, 8-to 10-week-old mixed gender C57B16 mice were injected intraperitoneally twice daily for 14 days with 30 mg/kg IOX5 or vehicle control. Mice were bled before and after treatment, and culled 12 hrs after the final dosing.
Given that Dap has been deemed safe in murine and human studies^37,72,78, the impact of IOX5 (68, example 46) on normal hematopoiesis was then examined.

[2] = system: Meis1/Hoxa9-transformed AML cells lacking both Hif1α and Hif2α and control cells; test: Proliferation of control and Hif1α/Hif2α-deficient Meis1/Hoxa9 AML cells; format: cell-based, mouse; conditions: 50 μM
From the text: To investigate whether HIF-α mediates the anti-leukaemic effects of PHD inhibition, Meis1/Hoxa9-transformed AML cells lacking both Hif1α and Hif2α and control cells were employed (Vukovic et al., 2015).

iMLL-AF9 AML cells = test: RNA-seq analysis of iMLL-AF9 AML cells; format: cell-based, mouse
Experimental: Total RNA was extracted from 500,000 leukaemic cells using RNeasy Plus Universal Mini Kit (QIAGEN, Cat. No. 73404) following the manufacture's protocol. The RNA integrity number (RIN) was determined by High Sensitivity RNA Screen Tape analysis (Agilent, Cat. No. 5067) and all RIN was >8. High sensitivity Libraries for RNA-seq were prepared from 500 ng of total RNA using the NEBNext® Ultra™ II Directional RNA Library Prep Kit for Illumina® (NEB, Cat. No. E7760) with NEBNext Poly(A) mRNA Magnetic Isolation Module (NEB, Cat. No. E7490) following the manufacture's protocol. Nine cycles of PCR were performed to amplify libraries and the pooled library was sequenced on illumina NextSeq 500 with 85 bp single-end mode at EMBL GeneCore facility.
For analysis of differentially expressed genes, adapters were trimmed with cutadapt (version 1.18) using options: -a […]-m 50, and processed reads were mapped to GRCm38 genome_tran (release 84) with HISAT2 (version 2.2.1 (Nature Methods volume 12, pages 357-360 (2015), https://www.nature.com/nmeth)) using following option: —qc-filter. Mapped reads per gene were counted with htseq-count (HTSeq version 2.0.1 (Bioinformatics, Volume 38, Issue 10, 15 May 2022, Pages 2943-2945)) providing GTF file and differentially expressed genes were analysed using DESeq2 (version 1.30.1). […]

[3] = system: OCI-AML3 cells in NBSGW recipient mice; test: OCI-AML3 xenotransplantation in NBSGW mice; format: in vivo, mouse; conditions: i.p. twice daily for 21 days
From the text: (A) 100,000 THP-1 cells were transplanted into NBSGW recipient mice. […] (B-C) Percentage of human CD45+CD33+ and human CD45+CD14+ cells in the BM and spleen, respectively (n=4-5). (D) 100,000 OCI-AML3 cells were transplanted into NBSGW recipient mice. […] (E) Percentage of human CD45+CD33+CD14+ cells in the liver, BM and PB, respectively (n=3-7). (F) 2,000 LSK cells from iMLL-AF9;Control mice were sorted and transplanted into irradiated recipient mice. […] (H) LDA in secondary recipients transplanted with indicated doses of CD45.2+BM cells from primary recipients (n=9-10 per dose). (I) Plot showing Poisson statistical analysis. Circles represent the percentages of negative mice for each cell dose, triangles represent any data values with zero negative responses. Solid lines indicate the best-fit linear model, and dotted lines represent 95% CIs. LSC frequencies were calculated using the ELDA software 121. (J) Steady-state analyses of 8-to 10-week-old C57B16 mice treated with IOX5 or vehicle control 2× daily via i.p. injection for 14 days (n=5-7). (K) PB counts (n=6). (L) Total BM cellularity (n=5-9). (M) Total numbers of HSC, MPP, HPC-1 and HPC-2 populations (n=5-7). Data represent mean±SEM; * p<0.05; ** p<0.01; *** p<0.001; **** p<0.0001. […]

[4] = system: human multiple myeloma cell lines; test: Apoptosis of multiple myeloma cell lines; format: cell-based; conditions: 50 μM, versus the control
Experimental: Apoptosis of multiple human MM cell lines derived from different patients (AWO^WT, H292, KMS12, RPMI, U266 and MM.1S) treated with vehicle control, 50 μM Daprodustat (2). Data represent mean±SEM; * p<0.05; ** p<0.01, *** p<0.001.
Viable cells were counted by trypan blue exclusion at the indicated time points. To analyse cells undergoing apoptosis, cells were suspended in binding buffer containing PE-conjugated Annexin-V or FITC-conjugated Annexin-V, and either PI or DAPI.

O=C(NCC1CCC(C(F)(F)F)CC1)c1c[nH]c(-n2cccn2)cc1=O (centres unmarked) [IOX5]
HSPC compartment [1]: no significant defects in the HSPC compartment
differentiated PB, BM or spleen compartments [1]: no detrimental impact on the differentiated PB, BM or spleen compartments
erythropoiesis [1]: enhanced erythropoiesis
proliferation of control vs Hif1α/Hif2α-deficient cells [2]: control AML cells manifest substantially reduced proliferation, while Hif½αDKO cells are refractory
gene set enrichment analysis (GSEA) of deregulated genes (iMLL-AF9 AML cells; 50 μM vs control): significant up-regulation of hypoxia signature, HIF-1 signalling, and activation of HIF-inducible pathways
BNIP3 transcript expression (iMLL-AF9 AML cells; murine cells): significantly upregulated
leukaemic burden [3]: significantly reduced leukaemic burden

O=C(O)CNC(=O)c1c(O)n(C2CCCCC2)c(=O)n(C2CCCCC2)c1=O [Daprodustat, daprodustat, reference compound]
apoptosis [4]: significant apoptosis
